# Laboratory results as given in publication PMC8308911, “Pharmacokinetic Study of Anti-osteoarthritic Compounds of a Standardized Fraction from Sphaeralcea Angustifolia” (Pharmaceuticals, 2021).
# Read-outs that look alike come from different tables or passages of the source.
# Assay: Pharmacokinetics after single intravenous administration of the SaTSS standardized fraction (plasma, HPLC, PKSolver)
# Assay type: in vivo, ICR mice
# Conditions: for AUC(0-t): read-out: AUC0-60 (converted); for Vd: read-out: Vss
# Procedure: Analyses of HPLC were carried out in a Waters system (2695 Separation module) coupled to a diode array detector (2996) with a 190–600-nm detection range and operated by the Manager Millennium software system (Empower 1; Waters Corporation, Mexico City, Mexico). Separations were performed in a Spherisorb-ODS RP-18 column (250 × 4.6 mm, 5 µm; Waters Corporation, Mexico) employing a constant temperature of 25 °C during the analyses. Samples (20 µL) were eluted at a 1.0 mL/min flow rate with a gradient of mobile phases of (A) high-purity H2O with trifluoroacetic acid to 0.5% v/v (TFA, Sigma-Aldrich, Mexico City, Mexico) and (B) high purity CH3CN, and compounds were detected by monitoring absorbance for tomentin and scopoletin at λ = 343 nm and for sphaeralcic acid at λ = 357 nm. The mobile phase was started with water (100%) and was maintained for 1 min, then solvent B was gradually incorporated at 5% (at 2 min), at 30% (at 4 min), and at 50% (at 16 min). During the next 4 min, solvent B was increased to 100%, and this proportion was maintained for 5 min. Finally, the following 3 min were utilized to return the mobile phase to the initial condition. […] Identification of scopoletin and tomentin as well as sphaeralcic acid was performed by comparing their retention times (tomentin—11.288 min, scopoletin—11.349 min, coumarin mixure—11.457 min, and sphaeralcic acid—23.319 min) and absorbance spectra.
# The mice were previously anesthetized with sodium pentobarbital (PiSA Agropecuaria), then retro-orbital sinus blood was obtained using heparinized capillaries and distributed to heparinized tubes, and tubes were centrifuged at 3500 g for 7 min. The plasma obtained was transferred to new tubes and stored at −4 °C until use.
# Plasma samples were extracted with CH3CN and TFA (w/v) 20% (1:1), then vials were centrifuged at 14,000 g for 10 min and the supernatant was transferred to another vial and left to dry at room temperature. The precipitate was resuspended with 1 mL of high-purity methanol (Merk, México) and filtered through Teflon membrane (13 mm, 0.45 µm, Life Science). Each filtered sample was injected into the HPLC equipment, and the concentrations of tomentin and scopoletin at λ = 343 nm and of sphaeralcic acid at λ = 357 nm were obtained by comparison with pre-built calibration curves.
# To evaluate the suitability of the assay for the pharmacokinetic studies, 400 mg/kg of the active SaTSS fraction standardized in a mixture of tomentin and scopoletin (7.1 mg/400 mg), and sphaeralcic acid (34.6 mg/400 mg) was administered orally or intravenously to the mice. The dose of SaTSS fraction was chosen based on previous research of active compounds, as the median efective dose of each compound and detectable concentrations of them in the fraction. For oral pharmacokinetics, ten animals were used in each group at different times (0, 1.3, 3.3, 5, 10, 20, 40, 60, 80, 120, and 240 min). For intravenous pharmacokinetics, three animals were used in each group at different times (2, 4, 6, 8, 10, 15, 20, 30, and 60 min) Subsequently, the mice were anesthetized, retro-orbital sinus blood was obtained, plasma samples were extracted with CH3CN and TFA (w/v) 20% (1:1), and the extracts were analyzed by HPLC for coumarin (tomentin and scopoletin) and sphaeralcic acid quantification. Pharmacokinetic calculations were performed using the observed data. All data were subsequently processed using the PKSolver add-in program for Microsoft Excel written in Visual Basic for Applications. All values obtained were expressed in mean ± Standard Deviation (SD). For the pharmacokinetic assay, the selection was made either from a one-compartment or from a two-compartment model, with the use of both the Akaike Information Criterion (AIC) and the Schwarz Criterion (SC). […]
# [1] = ICR, mouse, plasma, iv, 400 mg/kg, intravenous 400 mg/kg SaTES fraction, One-Compartment Model
# [2] = ICR, mouse, plasma, iv, 400 mg/kg, intravenous 400 mg/kg SaTES fraction, Two-Compartment Model
# [3] = intravenous 400 mg/kg SaTES fraction, One-Compartment Model
# [4] = intravenous 400 mg/kg SaTES fraction, Two-Compartment Model
# [5] = intravenous 400 mg/kg SaTES fraction, Two-Compartment Model, 400 mg/kg
# [6] = intravenous 400 mg/kg SaTES fraction, Two-Compartment Model, listed as Sphaeralcic Acid, 400 mg/kg
# [7] = intravenous 400 mg/kg SaTES fraction, Two-Compartment Model, listed as sphaeralcic acid, 400 mg/kg
structure (smiles),measurement,setting,value
"COc1c(C)cc2c(C(C)C)cc(C(=O)O)c(O)c2c1O [Sphaeralcic acid, sphaeralcic acid]",AUC(0-inf),[1],21300 ng·h/mL
same,clearance,[1],27 mL/min/kg
same,AUC(0-t),[1],18300 ng·h/mL
same,C0,"ICR, mouse, plasma, iv, 400 mg/kg, intravenous 400 mg/kg SaTES fraction, One-Compartment Model, read-out: C0",41700 ng/mL
same,MRT,"ICR, mouse, plasma, iv, 400 mg/kg, intravenous 400 mg/kg SaTES fraction, One-Compartment Model, read-out: MRT (converted)",30.7 min
same,Vd,[1],0.828 L/kg
same,half-life,"ICR, mouse, plasma, iv, 400 mg/kg, intravenous 400 mg/kg SaTES fraction, One-Compartment Model, read-out: t1/2",21.2 min
same,AUC(0-inf),[2],20400 ng·h/mL
same,clearance,[2],28 mL/min/kg
same,AUC(0-t),[2],17700 ng·h/mL
same,C0,"ICR, mouse, plasma, iv, 400 mg/kg, intravenous 400 mg/kg SaTES fraction, Two-Compartment Model, read-out: C0",58500 ng/mL
same,MRT,"ICR, mouse, plasma, iv, 400 mg/kg, intravenous 400 mg/kg SaTES fraction, Two-Compartment Model, read-out: MRT (converted)",29.3 min
same,Vd,[2],0.826 L/kg
same,half-life,"ICR, mouse, plasma, iv, 400 mg/kg, intravenous 400 mg/kg SaTES fraction, Two-Compartment Model, read-out: t1/2β",20.6 min
same,concentration at 2 min,"ICR, mouse, plasma, intravenous single dose 400 mg/kg SaTES fraction, 2.0 min, n = 3",40880 ± 210 ng/mL
same,concentration at 4 min,"ICR, mouse, plasma, intravenous single dose 400 mg/kg SaTES fraction, 4.0 min, n = 3",36280 ± 110 ng/mL
same,concentration at 6 min,"ICR, mouse, plasma, intravenous single dose 400 mg/kg SaTES fraction, 6.0 min, n = 3",33900 ± 240 ng/mL
same,concentration at 8 min,"ICR, mouse, plasma, intravenous single dose 400 mg/kg SaTES fraction, 8.0 min, n = 3",31800 ± 750 ng/mL
same,concentration at 10 min,"ICR, mouse, plasma, intravenous single dose 400 mg/kg SaTES fraction, 10 min, n = 3",28700 ± 650 ng/mL
same,concentration at 15 min,"ICR, mouse, plasma, intravenous single dose 400 mg/kg SaTES fraction, 15 min, n = 3",24400 ± 330 ng/mL
same,concentration at 20 min,"ICR, mouse, plasma, intravenous single dose 400 mg/kg SaTES fraction, 20 min, n = 3",21200 ± 510 ng/mL
same,concentration at 30 min,"ICR, mouse, plasma, intravenous single dose 400 mg/kg SaTES fraction, 30 min, n = 3",15800 ± 570 ng/mL
same,concentration at 60 min,"ICR, mouse, plasma, intravenous single dose 400 mg/kg SaTES fraction, 60 min, n = 3",3810 ± 90 ng/mL
same,AUMC,[3],"39,202.118 µg/mL*min^2"
same,V,[3],0.828 (mg)/(µg/mL)
same,k10,[3],0.032 min⁻¹
same,AUC0-inf ∞,"intravenous 400 mg/kg SaTES fraction, One-Compartment Model, 400 mg/kg",1278.978 µg·min/mL
same,k10,[4],0.048 min⁻¹
same,k12,[4],0.249 min⁻¹
same,k21,[4],0.624 min⁻¹
same,t1/2α,[4],0.781 min
same,α,[4],0.88 min⁻¹
same,β,[4],0.034 min⁻¹
same,"A (plasma concentration, central compartment)",[5],18.03 µg/mL
same,"B (plasma concentration, peripheral compartment)",[5],40.46 µg/mL
same,"A (plasma concentration, central compartment)",[6],18.027 µg/mL
same,AUMC,[6],"35,880.304 µg/mL*min^2"
same,"B (plasma concentration, peripheral compartment)",[6],40.461 µg/mL
same,C0,[6],58489 ng/mL
same,MRT,[6],29.294 min
same,V,[6],0.591 (mg)/(µg/mL)
same,AUMC,[7],"35,880.30 µg/mL*min^2"
same,V,[7],0.59 (mg)/(µg/mL)
